Consider one compound from patent US20260357349A1, “METHODS OF IDENTIFYING AND TREATING CANCER” (Agency for Science, Technology and Research, priority 2022, published 2026).

One test deals with metastatic RCC. The following applies: monotherapy, cited from earlier work.
In test [1] the test system is NF-κB pathway (786-O cells). Put plainly: RNA-seq after bortezomib, 786-O. Format: cell-based, human. The method, then: Colony formation of parental (WT) or PBRM1 knockout (KO) 786-O cells expressing shRNA against non-targeting control (NC), RELA, or NFKB1 cultured with a) 10% or b) 2% serum. c) Gene expression changes of NF-κB target genes in 786-O cells treated with 0.006 μM bortezomib (BTZ) or 0.6 µM Bay 11-7085 for 24 hours (n=3 technical replicates). * p-value<0.05 (two-sided t-test). […] A positive log fold change refers to gain in bortezomib treatment over DMSO. g) Colony formation of 786-O isogenic cells and h) NCC432 isogenic cells treated with bortezomib for a week. Tumor formation of isogenic 786-O cells (i) and NCC432 cells (j) treated with PBS control or 0.5 mg/kg bortezomib (BTZ) in NSG mice. (n=10 tumors per group for 786-O, and n=16 tumors for NCC432 PBS EV group and 12 tumors for NCC432 PBS PBRM1 group and 14 tumors for both NCC432 EV and PBRM1 BTZ groups). Data are presented as mean values+/−SEM. k) Model for the study.
In 6 wells, 1,000 786-O cells or 2,500 NCC432 cells were seeded and treated with DMSO control or increasing concentration of drugs for 7 days and stained with crystal violet. For drug screening, we used SGC epigenetic probe collection. For RNA-seq with bortezomib treatment, 2×10^5 786-O cells were treated with DMSO or 0.005 μM bortezomib and harvested 9 hours after treatment for RNA extraction. For RT-qPCR with SMARCA2/4 ATPase inhibitor treatment, 1×10^5 786-O cells were treated with DMSO or 0.01 μM SMARCA2/4 ATPase inhibitor (Targetmol, T10616, CAS: 2270879-17-7) for 3 days before RNA extraction.
Total RNA was extracted using the Qiagen RNeasy Mini kit. RNA-seq libraries were prepared using Illumina Tru-Seq Stranded Total RNA kit protocol, according to the manufacturer's instructions (Illumina, San Diego, California, USA). […] Sequencing was performed on an Illumina HiSeq4000 sequencer with the paired-end 150 bp read option.
RNA-Seq Pathway Analysis RNA-seq data were mapped to hg19 (h117d5) using STAR, with GENCODE annotation (gencode.v19.annotation.gtf) and recommended settings from STAR manual. Gene expression levels were quantified with STAR. […]

The mark [2] stands for this setting: phase II trial of 37 patients with metastatic RCC.

For `CC(C)C[C@H](NC(=O)[C@H](Cc1ccccc1)NC(=O)c1cnccn1)B(O)O` [bortezomib], in the test with metastatic RCC (literature survey of 32 trials), the “ranking of RCC response amongst solid tumors” value is given as “most responsive tumor type amongst all solid tumors”. In the test on metastatic RCC (setting [2]), the partial response was 4 patients and the stable disease is 14 patients. In addition, the “effect on NF-κB pathway by global transcriptomics” value in test [1] (0.005 μM bortezomib, 9 hours, RNA-seq) is “downregulation of the NF-κB pathway”. Further, the “effect on NF-κB activation (summary)” value in test [1] (Example 2 summary) was “reverses NF-κB activation”. In test [1] (in addition to RELA targets, 786-O), the “additional targets upregulated by PB1 loss that were suppressed” value worked out at 127 targets.
